Test [1] has as its target T1, wild-type Androgen Receptor (AR-wt) (Homo sapiens (Human), UniProt P10275). Briefly: LNCaP-AR-wt AG reporter assay (agonist mode). To be noted: for EC50: agonist mode, pEC50 = −Log10(EC50 in Molar), read-out: LNCaP-AR-wt AG pEC50 (converted); for Emax: maximum % stimulation (agonist response) over the tested concentration range, read-out: LNCaP-AR-wt AG MAX % Stim. The class given is cell-based. On the technique in general: A reporter such as luciferase makes a cellular process visible.

In test [2] the target is T2, F876L mutant Androgen Receptor (AR-F876L) (Homo sapiens (Human), UniProt P10275, F877L). In words: LNCaP-AR-F876L ANT reporter assay (antagonist mode). The note with it: for IC50: read-out: LNCaP-AR-F876L ANT pIC50 (converted); for Emax: maximum % inhibition of R1881 control response over the tested concentration range, read-out: LNCaP-AR-F876L ANT MAX % Inh. The class given is cell-based.
T2 sequence (P10275 whole entry F877L): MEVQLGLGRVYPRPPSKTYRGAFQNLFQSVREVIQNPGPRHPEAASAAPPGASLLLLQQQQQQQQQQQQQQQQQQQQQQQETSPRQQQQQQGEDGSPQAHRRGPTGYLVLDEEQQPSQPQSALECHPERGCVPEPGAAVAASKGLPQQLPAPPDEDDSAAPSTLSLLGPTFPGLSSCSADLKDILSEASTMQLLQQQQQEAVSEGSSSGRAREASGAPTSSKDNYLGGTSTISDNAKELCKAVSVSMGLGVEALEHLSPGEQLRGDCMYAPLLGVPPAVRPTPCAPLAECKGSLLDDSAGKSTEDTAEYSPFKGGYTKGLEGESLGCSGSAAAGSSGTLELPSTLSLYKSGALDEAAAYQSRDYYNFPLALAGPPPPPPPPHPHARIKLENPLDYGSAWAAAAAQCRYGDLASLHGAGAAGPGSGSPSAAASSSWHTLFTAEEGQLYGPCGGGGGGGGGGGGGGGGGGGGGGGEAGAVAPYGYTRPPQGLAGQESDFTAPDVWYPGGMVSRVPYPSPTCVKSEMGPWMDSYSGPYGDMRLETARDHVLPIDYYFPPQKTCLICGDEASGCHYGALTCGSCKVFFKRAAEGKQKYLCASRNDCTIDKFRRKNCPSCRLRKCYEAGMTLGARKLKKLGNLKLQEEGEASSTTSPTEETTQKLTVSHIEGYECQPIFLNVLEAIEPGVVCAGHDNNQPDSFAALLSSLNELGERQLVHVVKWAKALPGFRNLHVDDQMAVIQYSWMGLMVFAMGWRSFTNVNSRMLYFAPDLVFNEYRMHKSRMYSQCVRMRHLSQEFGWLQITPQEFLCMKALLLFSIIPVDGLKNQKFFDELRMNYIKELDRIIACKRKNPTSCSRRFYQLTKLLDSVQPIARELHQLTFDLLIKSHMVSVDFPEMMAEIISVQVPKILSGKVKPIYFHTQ

For test [3], the target named is T2, F876L mutant Androgen Receptor (AR-F876L). Briefly: LNCaP-AR-F876L AG reporter assay (agonist mode). The format is cell-based. The note with it: for EC50: agonist mode, pEC50 = −Log10(EC50 in Molar), read-out: LNCaP-AR-F876L AG pEC50 (converted); for Emax: maximum % stimulation (agonist response) over the tested concentration range, read-out: LNCaP-AR-F876L AG MAX % Stim.

The subject of the next test is rGABA-gated Cl− channel. In words: GABA-Gated Cl Channel Antagonist Radioligand Binding Assay. More on the design: species or system rat. To be noted: 10 μM single point, [35S]-TBPS, cerebral cortex membrane homogenates. The method in brief: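 Values give percent inhibition of control specific […] (3 nM) binding at a single 10 μM compound concentration. Cerebral cortex membranes, 120 min, 22° C, phosphate buffer pH 7.4 with 500 mM NaCl; 20 μM picrotoxinin sets nonspecific binding; filtration and scintillation read-out.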

The target of test [4] is T1, wild-type Androgen Receptor (AR-wt). Briefly: LNCaP-AR-wt ANT reporter assay (antagonist mode). The class given is cell-based. The note with it: for IC50: read-out: LNCaP-AR-wt ANT pIC50 (converted); for Emax: maximum % inhibition of R1881 control response over the tested concentration range, read-out: LNCaP-AR-wt ANT MAX % Inh.
The mark [5] stands for this setting: antagonist mode, pIC50 = −Log10(IC50 in Molar).

T1 sequence (P10275 whole entry): as the sequence (P10275 whole entry F877L) above, with L877F counted along it

On to `N#Cc1ncc(N2C(=O)C3(CCC3)N(c3ccc(OC4CC5(CCN5)C4)cc3)C2=S)cc1C(F)(F)F` (stereo not drawn) [Cpd 148, 5-[8-[4-(3-azaspiro[3.3]heptan-6-yloxy)phenyl]-5-oxo-7-thioxo-6,8-diazaspiro[3.4]octan-6-yl]-3-(trifluoromethyl)pyridine-2-carbonitrile], for which the EC50 in test [1] and in test [3] was above 15.1 µM each time. The Emax in test [1] was 0.1%; in test [2], 101%; in test [3] it was 0.6%; in test [4] it was 101%. For the same compound, the IC50 is 0.126 µM in test [2] (setting [5]) and 0.302 µM in test [4] (setting [5]). In the test on rGABA-gated Cl− channel, the “rGABA-gated Cl− channel % inh @10 μM” value was found to be 77.3%.

`CC(C)CCN1CCC(Oc2ccc(N3C(=S)N(c4cnc(C#N)c(Cl)c4)C(=O)C34CCC4)cn2)CC1` [Cpd 149, 3-chloro-5-[8-[6-[(1-isopentyl-4-piperidyl)oxy]-3-pyridyl]-5-oxo-7-thioxo-6,8-diazaspiro[3.4]octan-6-yl]pyridine-2-carbonitrile]: the EC50 in test [1] and in test [3] was above 15.1 µM each time. For the same compound, the Emax is 0.5% in test [1], 97.9% in test [2], 1.5% in test [3] and 99.8% in test [4]. For the same compound, the results for the IC50 in test [2] (setting [5]) and in test [4] (setting [5]) were 0.105 µM and 0.0813 µM, respectively. For the same compound, the “rGABA-gated Cl− channel % inh @10 μM” value in the test on rGABA-gated Cl− channel is 35.4%.

For `CN1CCC(Oc2ncc(N3C(=S)N(c4cnc(C#N)c(C(F)(F)F)c4)C(=O)C34CCC4)cn2)CC1` [Cpd 152, 5-[8-[2-[(1-methyl-4-piperidyl)oxy]pyrimidin-5-yl]-5-oxo-7-thioxo-6,8-diazaspiro[3.4]octan-6-yl]-3-(trifluoromethyl)pyridine-2-carbonitrile], the EC50 in test [1] and in test [3] was above 15.1 µM throughout. Also, the Emax amounted to 0.2% in test [1], 99.9% in test [2], 0.1% in test [3] and 101% in test [4]. For the same compound, the “LNCaP-AR-F876L ANT pIC50” value in test [2] (setting [5]) was 6.37. The “rGABA-gated Cl− channel % inh @10 μM” value in the test with rGABA-gated Cl− channel is 15.1%. In addition, the “LNCaP-AR-wt ANT pIC50” value in test [4] (setting [5]) stood at 6.38.

For `COc1cc(N2C(=O)C3(CCC3)N(c3ccc(OC4CCNCC4)cc3)C2=S)cnc1C#N` [Cpd 154, 3-methoxy-5-[5-oxo-8-[4-(4-piperidyloxy)phenyl]-7-thioxo-6,8-diazaspiro[3.4]octan-6-yl]pyridine-2-carbonitrile], the EC50 in test [1] and in test [3] was above 15.1 µM in each case. Besides, the Emax was -0.1% in test [1], 100% in test [2], -0.1% in test [3] and 102% in test [4]. Further, the values for the IC50 in test [2] (setting [5]) and in test [4] (setting [5]) were 0.269 µM and 0.468 µM, respectively. For the same compound, in the test on rGABA-gated Cl− channel, the “rGABA-gated Cl− channel % inh @10 μM” value is −22.2%.

`N#Cc1ncc(N2C(=O)C3(CCC3)N(c3ccc4nn(CCO)cc4c3)C2=S)cc1C(F)(F)F` [Cpd 161, 5-[8-[2-(2-hydroxyethyl)indazol-5-yl]-5-oxo-7-thioxo-6,8-diazaspiro[3.4]octan-6-yl]-3-(trifluoromethyl)pyridine-2-carbonitrile]: the EC50 in test [1] and in test [3] was above 15.1 µM throughout. Also, the Emax came out at 0.2% in test [1], 99.3% in test [2], 0.3% in test [3] and 97.2% in test [4]. Besides, the IC50 in test [2] (setting [5]) is 0.468 µM; in test [4] (setting [5]), 1.05 µM. Further, the “rGABA-gated Cl− channel % inh @10 μM” value in the test on rGABA-gated Cl− channel amounted to 77.9%.

Turning to `N#Cc1ncc(N2C(=O)C3(CCC3)N(c3ccc4nn(CCO)cc4c3)C2=S)cc1Cl` [Cpd 162, 3-chloro-5-[8-[2-(2-hydroxyethyl)indazol-5-yl]-5-oxo-7-thioxo-6,8-diazaspiro[3.4]octan-6-yl]pyridine-2-carbonitrile], the EC50 in test [1] and in test [3] was above 15.1 µM each time. For the same compound, the Emax in test [1] was -0.1%; in test [2] it was 99.2%; in test [3], 0%; in test [4], 96.4%. Also, the IC50 in test [2] (setting [5]) is 0.158 µM; in test [4] (setting [5]), 0.324 µM. Besides, in the test with rGABA-gated Cl− channel, the “rGABA-gated Cl− channel % inh @10 μM” value stood at 48.5%.

For the compound `COCCn1cc2cc(N3C(=S)N(c4cnc(C#N)c(Cl)c4)C(=O)C34CCC4)ccc2n1` [Cpd 169, 3-chloro-5-[8-[2-(2-methoxyethyl)indazol-5-yl]-5-oxo-7-thioxo-6,8-diazaspiro[3.4]octan-6-yl]pyridine-2-carbonitrile], the EC50 in test [1] and in test [3] was above 15.1 µM in each case. Moreover, the Emax came out at 0.2% in test [1], 100% in test [2], 0.2% in test [3] and 99.6% in test [4]. The IC50 was 0.112 µM in test [2] (setting [5]) and 0.186 µM in test [4] (setting [5]). Besides, in the test with rGABA-gated Cl− channel, the “rGABA-gated Cl− channel % inh @10 μM” value came to 80.8%.

For the compound `COCCn1cc2cc(N3C(=S)N(c4cnc(C#N)c(C(F)(F)F)c4)C(=O)C34CCC4)ccc2n1` [Cpd 172, 5-[8-[2-(2-methoxyethyl)indazol-5-yl]-5-oxo-7-thioxo-6,8-diazaspiro[3.4]octan-6-yl]-3-(trifluoromethyl)pyridine-2-carbonitrile], the EC50 in test [1] and in test [3] was above 15.1 µM throughout. Besides, the Emax in test [1] was 0.2%; in test [2], 100%; in test [3], -0.1%; in test [4] it was 99.2%. The IC50 was 0.174 µM in test [2] (setting [5]) and 0.339 µM in test [4] (setting [5]). Also, the “rGABA-gated Cl− channel % inh @10 μM” value in the test with rGABA-gated Cl− channel was found to be 94.9%.

As for `Cn1cc2cc(N3C(=S)N(c4cnc(C#N)c(C(F)(F)F)c4)C(=O)C34CCC4)ccc2n1` [Cpd 174, 5-[8-(2-methylindazol-5-yl)-5-oxo-7-thioxo-6,8-diazaspiro[3.4]octan-6-yl]-3-(trifluoromethyl)pyridine-2-carbonitrile], the EC50 in test [1] and in test [3] was above 15.1 µM throughout. Besides, the Emax in test [1] turned out to be 0%; in test [2] it was 101%; in test [3] it was 0.1%; in test [4], 102%. Further, the IC50 in test [2] (setting [5]) was 0.219 µM; in test [4] (setting [5]), 0.407 µM. Moreover, the “rGABA-gated Cl− channel % inh @10 μM” value with rGABA-gated Cl− channel is 94.9%.

Regarding `COCCn1cc2cc(N3C(=S)N(c4cnc(C#N)c(OC)c4)C(=O)C34CCC4)ccc2n1` [Cpd 175, 3-methoxy-5-[8-[2-(2-methoxyethyl)indazol-5-yl]-5-oxo-7-thioxo-6,8-diazaspiro[3.4]octan-6-yl]pyridine-2-carbonitrile], the EC50 in test [1] and in test [3] was above 15.1 µM each time. Also, the Emax in test [1] is 0.1%; in test [2] it was 101%; in test [3] it was 0%; in test [4], 101%. Besides, the IC50 is 0.141 µM in test [2] (setting [5]) and 0.269 µM in test [4] (setting [5]). Also, the “rGABA-gated Cl− channel % inh @10 μM” value with rGABA-gated Cl− channel was found to be 25.6%.

As to `N#Cc1ncc(N2C(=O)C3(CCC3)N(c3ccc4nn(C5CCNCC5)cc4c3)C2=S)cc1Cl` [Cpd 180, 3-chloro-5-[5-oxo-8-[2-(4-piperidyl)indazol-5-yl]-7-thioxo-6,8-diazaspiro[3.4]octan-6-yl]pyridine-2-carbonitrile], the EC50 in test [1] and in test [3] was above 15.1 µM throughout. Moreover, the Emax in test [1] came out at 0.2%; in test [2], 104%; in test [3], 0.2%; in test [4], 106%. In addition, the IC50 is 0.0977 µM in test [2] (setting [5]) and 0.219 µM in test [4] (setting [5]). In the test with rGABA-gated Cl− channel, the “rGABA-gated Cl− channel % inh @10 μM” value is recorded as 36.7%.

In the case of `CN1CCC(n2ncc3cc(N4C(=S)N(c5cnc(C#N)c(Cl)c5)C(=O)C45CCC5)ccc32)CC1` [Cpd 183, 3-chloro-5-[8-[1-(1-methyl-4-piperidyl)indazol-5-yl]-5-oxo-7-thioxo-6,8-diazaspiro[3.4]octan-6-yl]pyridine-2-carbonitrile], the EC50 in test [1] and in test [3] was above 15.1 µM in each case. Also, the Emax was 0.3% in test [1], 101% in test [2], -0.1% in test [3] and 100% in test [4]. In addition, the IC50 in test [2] (setting [5]) was 0.275 µM; in test [4] (setting [5]) it was 0.513 µM. In addition, the “rGABA-gated Cl− channel % inh @10 μM” value in the test on rGABA-gated Cl− channel is recorded as 37.9%.

The record behind these values is US10981926B2 (Janssen Pharmaceutica NV, priority 2016, dated 2021).
